# Measurements as given in paper PMC9580147, “A novel C-type lectin from Trichinella spiralis mediates larval invasion of host intestinal epithelial cells” (Veterinary Research, 2022).
# Target: T1, rTsCTL (TsCTL, Trichinella spiralis type C lectin) (Trichinella spiralis, UniProt A0A0V1BZI5)
# T1 construct: gene T01_9679; N-terminal His-tag (pQE-80L), E. coli BL21 (DE3), Ni-NTA purified; 208 aa full length, 24 kDa; C-type lectin domain residues 24-156
# Assay: inhibition of haemagglutination of mouse erythrocytes by rTsCTL
# Type: biochemical
# Conditions: rTsCTL 100 ug/mL; 2% mouse erythrocytes; room temperature, 1 h; Ca2+-dependent lectin; TBS pH 8.0; presumed carbohydrate recognition domain
# T1 sequence (A0A0V1BZI5 entry or part of it): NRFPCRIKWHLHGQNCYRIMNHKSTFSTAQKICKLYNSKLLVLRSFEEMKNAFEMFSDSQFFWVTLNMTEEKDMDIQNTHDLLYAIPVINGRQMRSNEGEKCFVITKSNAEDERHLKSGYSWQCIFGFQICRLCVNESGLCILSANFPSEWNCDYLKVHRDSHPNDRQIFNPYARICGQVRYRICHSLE
compound,measurement,value
OC[C@H]1OC(O)[C@@H](O)[C@@H](O)[C@@H]1O (stereo partly shown) [mannose],minimum inhibitory dose,100 mM
